Measurements from patent US20240228446A1, “PREPARATION METHOD FOR BICYCLIC COMPOUND AND APPLICATION AS ANTIFUNGAL AGENT” (priority 2021, published 2024).
Values after ≈ are worked out from the molar mass of the structure shown. Where two headings read alike, the source gives them in different places.

How the values were obtained:
[1] = test system: Candida albicans ATCC MYA-2876; test: Minimal inhibitory concentration (MIC) test on fungal growth (CLSI M27, yeasts); type: cell-based; conditions: for MIC: Candida albicans, read-out: MIC Candida albicans ATCC MYA-2876
Protocol: (§1) • RPMI1640 medium: Brand: Gibco, article number: 31800-014 • Sabouraud dextrose agar (SDA): Brand: Hope Bio, article number: HB0253-81 • Voriconazole: Brand: Adamas, article number: 22105A • Amphotericin B: Brand: AbCam, article number: ab141199
(§2) MIC test was conducted in accordance with the guidelines and requirements of CLSI M27 (for yeasts) and M38 (for Aspergillus).
(§3) Strain preparation: The strains were inoculated 1 day in advance by streaking on SDA plates with glycerol strains stored at −80° C. The strains were cultured at 35° C. and 40 to 60% humidity for 18 to 24 hours. Streak inoculation of Aspergillus fumigatus and Cryptococcus neoformans was required to be done 3 days and 2 days in advance, respectively.
(§4) Preparation of culture medium and compounds: The liquid culture medium RPMI was prepared with pure water, and 0.165 mol/L MOPS was added to adjust the pH to 7.0. The mixture was filtered with a 0.22 μm-membrane filter, sterilized, and stored at 4° C. (no more than 3 months). 0.85% physiological saline was sterilized at 121° C. for 30 min and then stored at room temperature (no more than 1 week). The compounds were dissolved in DMSO to 12.8 mg/mL and stored at −20° C.
For yeast, 3 to 5 colonies were selected from the SDA plate on the day of testing and fully suspended in 5 mL of sterilized 0.85% physiological saline. The turbidity of the bacterial suspension was measured with a turbidimeter, and the turbidity was adjusted to approximately 0.2. The bacterial suspension was 50-fold and 20-fold (1000-fold in total) diluted in RPMI1640 medium, respectively, to serve as the inoculum. The final inoculum concentration was 500 to 2500 CFU/mL.
(§5) The compound was diluted to the highest 800 μg/mL (or 400 μg/mL) with DMSO, and a 10-step 2-fold gradient dilution was performed, resulting in 11 concentrations. 2 μL of the gradient-diluted compound was transferred to the corresponding wells of a 96-well plate, and then 198 μL of the inoculum was transferred to the test plate. The plate was incubated at 35° C. for 24 hours (Aspergillus fumigatus and Cryptococcus neoformans were incubated for 48 and 72 hours, respectively).
(§6) After the incubation, the growth of the fungi was visually observed. The lowest concentration of the compound that inhibited the growth of yeast by 50% (inhibited Aspergillus by 100%) was defined as the minimum inhibitory concentration (MIC, μg/mL). A magnifying glass or reading at OD530 nm could be used to assist in determining the MIC. Photos were taken of the test plates for record keeping.

[2] = test system: Aspergillus fumigatus ATCC MYA-4609; test: Minimal inhibitory concentration (MIC) test on fungal growth (CLSI M38, Aspergillus); type: cell-based; conditions: for MIC: Aspergillus fumigatus, read-out: MIC Aspergillus fumigatus ATCC MYA-4609
Protocol: as §1, §2, §3, §4
For Aspergillus, 5 mL of physiological saline was added to cover the mycelium, and the spores were gently scraped off with a spreader. The spore suspension was then transferred to a sterile test tube. An appropriate amount of spore suspension was taken and counted under a microscope using a hemocytometer. Spore concentration was adjusted to approximately 0.4 to 5×10^4 spores/mL using RPMI1640 medium.
as §5, §6

[3] = lowest concentration inhibiting growth of yeast by 50%, 35° C., 24 hours, RPMI1640
[4] = lowest concentration inhibiting Aspergillus by 100%, 35° C., 48 hours, RPMI1640

Question: How did the MIC [1, 3] turn out when `CC(C)(O)COc1ccc(C23CC(C(F)(F)C(O)(Cn4cnnn4)c4ccc(F)cc4F)(C2)C3)cc1` (centres unmarked) [Compound 36] was run?
Answer: ≤ 0.0039 µg/mL

Question: What about the MIC [2, 4] of the same compound?
Answer: 8 µg/mL (≈ 15.8 µM)

Question: With `Oc1ccc(C23CC(C(F)(F)[C@](O)(Cn4cncn4)c4ccc(F)cc4F)(C2)C3)cc1` [Compound 21A] as the compound, how does the MIC [1, 3] read?
Answer: ≤ 0.0039 µg/mL

Question: What about the MIC [2, 4] of the same compound?
Answer: 1 µg/mL (≈ 2.31 µM)

Question: With `O[C@H](COc1ccc(C23CC(C(F)(F)[C@](O)(Cn4cnnn4)c4ccc(F)cc4F)(C2)C3)cc1)C1CC1` (relative stereo) [Compound 144A] as the compound, how does the MIC [1, 3] read?
Answer: ≤ 0.0039 µg/mL

Question: And the MIC [2, 4]?
Answer: 2 µg/mL (≈ 3.86 µM)

Question: Which results are given for `O[C@@](Cn1cncn1)(c1ccc(F)cc1F)C(F)(F)C12CC(c3ccc(OCC(F)(F)F)cc3)(C1)C2` (stereo in doubt) [Compound 2A]?
Answer: MIC [1, 3]: ≤ 0.0039 µg/mL; MIC [2, 4]: 1 µg/mL (≈ 1.94 µM)

Question: With `O=C(COc1ccc(C23CC(C(F)(F)C(O)(Cn4cncn4)c4ccc(F)cc4F)(C2)C3)cc1)NC1CC1` (centres unmarked) [Compound 129] as the compound, how does the MIC [1, 3] read?
Answer: 0.0078 µg/mL (≈ 0.0147 µM)

Question: And the MIC [2, 4]?
Answer: 4 µg/mL (≈ 7.54 µM)

Question: `N#Cc1ccc(C23CC(C(F)(F)[C@](O)(Cn4cncn4)c4ccc(F)cc4F)(C2)C3)cc1` [Compound 27A] was tested. Which MIC [1, 3] did it give?
Answer: ≤ 0.0039 µg/mL

Question: What about the MIC [2, 4] of the same compound?
Answer: 0.5 µg/mL (≈ 1.13 µM)

Question: What does the source list for `CNC(=O)COc1ccc(C23CC(C(F)(F)C(O)(Cn4cncn4)c4ccc(F)cc4F)(C2)C3)cc1` (centres unmarked) [Compound 35]?
Answer: MIC [1, 3]: ≤ 0.0039 µg/mL; MIC [2, 4]: 2 µg/mL (≈ 3.96 µM)

Question: For `N#Cc1ccc(C23CC(C(F)(F)C(O)(Cn4cncn4)c4cc(F)ccc4F)(C2)C3)cc1` (centres unmarked) [Compound 29], which MIC [1, 3] is on record?
Answer: ≤ 0.0039 µg/mL

Question: And the MIC [2, 4]?
Answer: 2 µg/mL (≈ 4.52 µM)

Question: What does the source list for `OC(Cn1cncn1)(c1ccc(F)cc1F)C(F)(F)C12CC(c3ccc(OC(F)F)cc3)(C1)C2` (centres unmarked) [Compound 81]?
Answer: MIC [1, 3]: ≤ 0.0039 µg/mL; MIC [2, 4]: 1 µg/mL (≈ 2.07 µM)

Question: Which results are given for `OC(Cn1cnnn1)(c1ccc(F)cc1F)C(F)(F)C12CC(c3ccc(OC[C@H]4CCCO4)cc3)(C1)C2` (some centres unmarked) [Compound 76]?
Answer: MIC ([1]; 24 h): 0.016 µg/mL (≈ 0.0309 µM); MIC ([2]; 48 h): 8 µg/mL (≈ 15.4 µM)

Question: What does the source list for `O[C@H](COc1ccc(C23CC(C(F)(F)[C@](O)(Cn4cncn4)c4ccc(F)cc4F)(C2)C3)cn1)C(F)(F)F` [Compound 98A]?
Answer: MIC Candida albicans ATCC MYA-2876 [1, 3]: ≤0.0039 µg/mL; MIC Aspergillus fumigatus ATCC MYA-4609 [2, 4]: 1 µg/mL (≈ 1.83 µM)

Question: `OC1(COc2ccc(C34CC(C(F)(F)C(O)(Cn5cncn5)c5ccc(F)cc5F)(C3)C4)cc2)COC1` (centres unmarked) [Compound 151] was tested. Which MIC [1, 3] did it give?
Answer: ≤ 0.0039 µg/mL

Question: What about the MIC [2, 4] of the same compound?
Answer: 2 µg/mL (≈ 3.85 µM)

Question: What does the source list for `OC(Cn1cnnn1)(c1ccc(F)cc1F)C(F)(F)C12CC(c3ccc(OCCN4CCOCC4)cc3)(C1)C2` (centres unmarked) [Compound 65]?
Answer: MIC ([1]; 24 h): 0.0078 µg/mL (≈ 0.0142 µM); MIC ([2]; 48 h): 32 µg/mL (≈ 58.4 µM)

Question: How did the “MIC Candida albicans ATCC MYA-2876” value [1, 3] turn out when `O[C@@H](COc1ccc(C23CC(C(F)(F)[C@](O)(Cn4cnnn4)c4ccc(F)cc4F)(C2)C3)cc1)C(F)(F)F` [Compound 51B] was run?
Answer: 0.0078 µg/mL (≈ 0.0143 µM)

Question: What about the “MIC Aspergillus fumigatus ATCC MYA-4609” value [2, 4] of the same compound?
Answer: 4 µg/mL (≈ 7.32 µM)

Question: Which MIC [1, 3] does the source give for `CC(C)(O)COc1ccc(C23CC(C(F)(F)[C@](O)(Cn4cncn4)c4ccc(F)cc4F)(C2)C3)cc1` [Compound 37A] here?
Answer: ≤ 0.0039 µg/mL

Question: What about the MIC [2, 4] of the same compound?
Answer: 1 µg/mL (≈ 1.98 µM)

Question: What does the source list for `CS(=O)(=O)COc1ccc(C23CC(C(F)(F)[C@](O)(Cn4cnnn4)c4ccc(F)cc4F)(C2)C3)cc1` (stereo in doubt) [Compound 131A]?
Answer: MIC [1, 3]: ≤ 0.0039 µg/mL; MIC [2, 4]: 4 µg/mL (≈ 7.6 µM)

Question: What does the source list for `COc1ccc(C23CC(C(F)(F)C(O)(Cn4cnnn4)c4ccc(F)cc4F)(C2)C3)cc1` (centres unmarked) [Compound 1]?
Answer: MIC [1, 3]: 0.015 µg/mL (≈ 0.0335 µM); MIC [2, 4]: 8 µg/mL (≈ 17.8 µM)

Question: With `OC1(COc2ccc(C34CC(C(F)(F)C(O)(Cn5cnnn5)c5ccc(F)cc5F)(C3)C4)cc2)CC(F)(F)C1` (centres unmarked) [Compound 149] as the compound, how does the MIC [1, 3] read?
Answer: ≤ 0.0039 µg/mL

Question: What about the MIC [2, 4] of the same compound?
Answer: 8 µg/mL (≈ 14.4 µM)

Question: For `OCC(F)(F)COc1ccc(C23CC(C(F)(F)C(O)(Cn4cnnn4)c4ccc(F)cc4F)(C2)C3)cc1` (centres unmarked) [Compound 50], which MIC [1, 3] is on record?
Answer: 0.016 µg/mL (≈ 0.0303 µM)

Question: What about the MIC [2, 4] of the same compound?
Answer: 4 µg/mL (≈ 7.57 µM)

Question: With `CNC(=O)COc1ccc(C23CC(C(F)(F)[C@](O)(Cn4cncn4)c4ccc(F)cc4F)(C2)C3)cc1` [Compound 35A] as the compound, how does the “MIC Candida albicans ATCC MYA-2876” value [1, 3] read?
Answer: ≤0.0039 µg/mL

Question: What about the “MIC Aspergillus fumigatus ATCC MYA-4609” value [2, 4] of the same compound?
Answer: 1 µg/mL (≈ 1.98 µM)

Question: With `O[C@@](Cn1cnnn1)(c1ccc(F)cc1F)C(F)(F)C12CC(c3ccc(OCC(F)(F)F)cc3)(C1)C2` [Compound 3A] as the compound, how does the MIC [1, 3] read?
Answer: ≤ 0.0039 µg/mL

Question: What about the MIC [2, 4] of the same compound?
Answer: 1 µg/mL (≈ 1.94 µM)

Question: `COC(COc1ccc(C23CC(C(F)(F)C(O)(Cn4cnnn4)c4ccc(F)cc4F)(C2)C3)cc1)C(F)(F)F` (centres unmarked) [Compound 136] was tested. Which MIC [1, 3] did it give?
Answer: 0.016 µg/mL (≈ 0.0285 µM)

Question: And the MIC [2, 4]?
Answer: 4 µg/mL (≈ 7.14 µM)
